Source: patent US9629830B2, “EphA4 inhibitors as neuroprotective agents” (The Hong Kong University of Science and Technology, priority 2013, dated 2017)
“Also recorded” adds a separate entry of the source.

molecular target: T1, EphA4 (Rattus norvegicus, UniProt D3ZZK3); assay: Ephrin-A1-induced EphA4 cluster assay in cultured hippocampal neurons; assay type: cell-based; conditions: 30 μM
T1 construct: endogenous in cells; host or cells: primary rat cortical neurons (A5), primary rat hippocampal neurons (A7)
Procedure: For EphA4 clustering, neurons were stained with anti-EphA4 and anti-Tau-1 antibodies. For the growth cone collapse assay, neurons were stained with Alexa Fluor 555-conjugated phalloidin (Molecular Probes) for filamentous actin and anti-Tau-1 antibody for axons. Collapsed growth cones were scored in a double-blinded manner. The experiments were repeated at least 3 times, and >50 neurons were analyzed for each experiment. Data are presented as mean±SEM.
Rat hippocampal neurons were seeded on 48-well plates coated with poly-D-lysine (50 μg/mL) at 6000 cells per well. Neurons were incubated with Neurobasal medium (Invitrogen) supplemented with 2% B27 (Invitrogen). […] Neurons were then immunostained with anti-EphA4 and anti-Tau-1 antibodies. The cellular imaging and quantification of EphA4 clusters was performed using IN Cell Analyzer 6000 high content assay system (GE Healthcare). EphA4 clusters were quantified by calculating the proportion of total area of EphA4 clusters on axons against Tau positive area. Statistical analysis was performed with one-way ANOVA followed by Newman-Keuls Multiple Comparison Test (Prism 5 GraphPad Software).

T1 sequence (D3ZZK3 20-986): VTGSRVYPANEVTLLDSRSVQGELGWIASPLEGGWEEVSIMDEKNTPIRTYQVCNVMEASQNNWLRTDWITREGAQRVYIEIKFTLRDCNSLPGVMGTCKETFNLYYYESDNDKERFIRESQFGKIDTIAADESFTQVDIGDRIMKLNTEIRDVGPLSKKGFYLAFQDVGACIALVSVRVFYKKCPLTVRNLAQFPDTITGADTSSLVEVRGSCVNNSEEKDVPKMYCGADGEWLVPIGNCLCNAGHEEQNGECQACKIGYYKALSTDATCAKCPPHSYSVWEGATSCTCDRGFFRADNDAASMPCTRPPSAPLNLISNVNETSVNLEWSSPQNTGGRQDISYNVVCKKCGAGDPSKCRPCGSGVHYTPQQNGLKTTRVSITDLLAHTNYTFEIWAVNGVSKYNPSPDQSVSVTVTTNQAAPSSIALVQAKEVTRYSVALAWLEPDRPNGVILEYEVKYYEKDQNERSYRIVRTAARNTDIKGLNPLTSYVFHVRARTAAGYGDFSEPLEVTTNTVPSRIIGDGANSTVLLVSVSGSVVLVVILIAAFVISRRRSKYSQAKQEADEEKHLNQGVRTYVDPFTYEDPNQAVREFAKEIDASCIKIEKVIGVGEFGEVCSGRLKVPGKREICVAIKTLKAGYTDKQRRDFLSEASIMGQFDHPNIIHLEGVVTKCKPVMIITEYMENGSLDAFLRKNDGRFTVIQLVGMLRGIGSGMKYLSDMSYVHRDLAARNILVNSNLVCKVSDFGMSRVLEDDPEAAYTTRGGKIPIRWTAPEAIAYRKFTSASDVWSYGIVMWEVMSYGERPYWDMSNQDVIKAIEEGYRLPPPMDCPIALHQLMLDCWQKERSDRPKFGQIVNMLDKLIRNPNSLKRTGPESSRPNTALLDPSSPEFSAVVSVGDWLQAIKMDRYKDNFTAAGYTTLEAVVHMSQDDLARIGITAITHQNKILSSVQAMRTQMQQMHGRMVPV

Row | Compound | potency on EphA4 inhibition (EphA4 clusters) compared to Rhy (words)
1 | CCC1CN2CCC3(C(=O)N(CCCCCCBr)c4ccccc43)C2CC1C(=COC)C(=O)OC (centres unmarked) [RHY-27] | higher potency on EphA4 inhibition
2 | CCC1CN2CCC3(C(=O)N(CCCCCCCCCOc4ccc(OCc5ccccc5)cc4)c4ccccc43)C2CC1C(=COC)C(=O)OC (centres unmarked) [RHY-55] | higher potency on EphA4 inhibition
3 | CCC1CN2CCC3(C(=O)N(CCCCCCCCOC(=O)c4ccc(Br)cc4I)c4ccccc43)C2CC1C(=COC)C(=O)OC (centres unmarked) [RHY-52] | More Potent Effect on EphA4 Inhibition than Rhy
4 | CCC1CN2CCC3(C(=O)N(CCCCCCOc4ccc(OC)c(OC)c4)c4ccccc43)C2CC1C(=COC)C(=O)OC (centres unmarked) [RHY-39] | more potent effect on EphA4 inhibition than Rhy
5 | CCC1CN2CCC3(C(=O)N(CCCCCCCOc4ccc(OC)c(OC)c4)c4ccccc43)C2CC1C(=COC)C(=O)OC (centres unmarked) [RHY-43] | more potent effect on EphA4 inhibition than Rhy
6 | CCC1CN2CCC3(C(=O)N(CCCCCCCCCOc4ccc(O)cc4)c4ccccc43)C2CC1C(=COC)C(=O)OC (centres unmarked) [RHY-60] | more potent effect on EphA4 inhibition than Rhy
7 | CCC1CN2CCC3(C(=O)N(CCCCCCCCOc4ccc(OCc5ccccc5)cc4)c4ccccc43)C2CC1C(=COC)C(=O)OC (centres unmarked) [RHY-49] | higher potency on EphA4 inhibition
8 | CC[C@H]1CN2CC[C@]3(C(=O)N(CCCCCCCCOC(=O)c4cc(OC)ccc4[N+](=O)[O-])c4ccccc43)[C@@H]2C[C@@H]1/C(=C\OC)C(=O)OC [RHY-50] | more potent; also recorded: higher potency on EphA4 inhibition than Rhy
9 | CCC1CN2CCC3(C(=O)N(CCCCCCCCCBr)c4ccccc43)C2CC1C(=COC)C(=O)OC (centres unmarked) [RHY-31] | higher potency on EphA4 inhibition
10 | CCC1CN2CCC3(C(=O)N(CCCCCCCCBr)c4ccccc43)C2CC1C(=COC)C(=O)OC (centres unmarked) [RHY-34] | higher potency on EphA4 inhibition
11 | CC[C@H]1CN2CC[C@]3(C(=O)N(CCCCCCCCOc4ccc(OC)c(OC)c4)c4ccccc43)[C@@H]2C[C@@H]1/C(=C\OC)C(=O)OC [RHY-37] | more potent effect on EphA4 inhibition than Rhy
12 | CC[C@H]1CN2CC[C@]3(C(=O)N(CCCCCCOc4ccc(OCc5ccccc5)cc4)c4ccccc43)[C@@H]2C[C@@H]1/C(=C\OC)C(=O)OC [RHY-42] | higher potency on EphA4 inhibition
13 | CC[C@H]1CN2CC[C@]3(C(=O)N(CCCCCCCOc4ccc(O)cc4)c4ccccc43)[C@@H]2C[C@@H]1/C(=C\OC)C(=O)OC [RHY-48] | comparable potency to Rhy
14 | CCC1CN2CCC3(C(=O)N(CCCCCCCOc4ccc(OCc5ccccc5)cc4)c4ccccc43)C2CC1C(=COC)C(=O)OC (centres unmarked) [RHY-44] | higher potency on EphA4 inhibition
15 | CCC1CN2CCC3(C(=O)N(CCCCCCCBr)c4ccccc43)C2CC1C(=COC)C(=O)OC (centres unmarked) [RHY-35] | higher potency on EphA4 inhibition
16 | CCC1CN2CCC3(C(=O)N(CCCCCCCCCOC(=O)C=Cc4ccc(OC)cc4)c4ccccc43)C2CC1C(=COC)C(=O)OC (centres unmarked) [RHY-59] | more potent; also recorded: higher potency on EphA4 inhibition than Rhy
17 | CC[C@H]1CN2CC[C@]3(C(=O)N(CCCCCCCOC(=O)c4cc(OC)ccc4[N+](=O)[O-])c4ccccc43)[C@@H]2C[C@@H]1/C(=C\OC)C(=O)OC [RHY-45] | more potent; also recorded: higher potency on EphA4 inhibition than Rhy
18 | CCC1CN2CCC3(C(=O)N(CCCCCCCCOc4ccc(O)cc4)c4ccccc43)C2CC1C(=COC)C(=O)OC (centres unmarked) [RHY-54] | significantly more potent than Rhy; also recorded: more potent effect on EphA4 inhibition than Rhy
19 | CCC1CN2CCC3(C(=O)N(CCCCCCOC(=O)c4cc(OC)ccc4[N+](=O)[O-])c4ccccc43)C2CC1C(=COC)C(=O)OC (centres unmarked) [RHY-40] | more potent; also recorded: higher potency on EphA4 inhibition than Rhy
20 | CC[C@H]1CN2CC[C@]3(C(=O)N(CCCCCBr)c4ccccc43)[C@@H]2C[C@@H]1/C(=C\OC)C(=O)OC [RHY-23] | higher potency on EphA4 inhibition

same assay, conditions: 30 μM, 20 min pretreatment, then ephrin-A1 40 min; some sentences add 'when compared to Rhy'

Row | Compound | reduction of ephrin-A1-induced EphA4 clustering
21 | CC[C@H]1CN2CC[C@]3(C(=O)N(CCCCCCCCCl)c4ccccc43)[C@@H]2C[C@@H]1/C(=C\OC)C(=O)OC [RHY-26] | ~80%

same assay, conditions: 30 μM; listed as RHY60

Row | potency on EphA4 inhibition (EphA4 clusters) compared to Rhy (words) | Compound
22 | significantly more potent than Rhy | CCC1CN2CCC3(C(=O)N(CCCCCCCCCOc4ccc(O)cc4)c4ccccc43)C2CC1C(=COC)C(=O)OC (centres unmarked) [RHY-60]

same assay, conditions: 50 μM

Row | Compound | inhibitory effect on EphA4 cluster formation | potency on EphA4 inhibition (EphA4 clusters) compared to Rhy (words)
23 | CCC1CN2CCC3(C(=O)N(Cc4cccc(Cl)c4)c4ccccc43)C2CC1C(=COC)C(=O)OC (centres unmarked) [RHY-19] | most significant | significantly reduced the EphA4 clusters compared to Rhy
24 | CCC1CN2CCC3(C(=O)N(CC=Cc4ccccc4)c4ccccc43)C2CC1C(=COC)C(=O)OC (centres unmarked) [RHY-9] | most significant | significantly reduced the EphA4 clusters compared to Rhy
25 | CC[C@H]1CN2CC[C@]3(C(=O)N(CCCCCCCCOC(=O)c4ccc(OC)c(OC)c4)c4ccccc43)[C@@H]2C[C@@H]1/C(=C\OC)C(=O)OC [RHY-36] |  | more potent activity than Rhy; also recorded: more potent effect on EphA4 inhibition than Rhy
26 | CCC1CN2CCC3(C(=O)N(Cc4ccccc4-c4ccccc4)c4ccccc43)C2CC1C(=COC)C(=O)OC (centres unmarked) [RHY-10] | most significant | significantly reduced the EphA4 clusters compared to Rhy
27 | CCC1CN2CCC3(C(=O)N(CCCCCCCCCNCCCCCCN)c4ccccc43)C2CC1C(=COC)C(=O)OC (centres unmarked) [RHY-32] |  | higher potency on EphA4 inhibition
28 | CCC1CN2CCC3(C(=O)N(CCCCCCOC(=O)c4ccc(OC)c(OC)c4)c4ccccc43)C2CC1C(=COC)C(=O)OC (centres unmarked) [RHY-33] |  | comparable potency as Rhy
29 | CCC1CN2CCC3(C(=O)N(CCCCCCCCCOC(=O)c4ccc(OC)c(OC)c4)c4ccccc43)C2CC1C(=COC)C(=O)OC (centres unmarked) [RHY-57] |  | more potent activity than Rhy; also recorded: more potent effect on EphA4 inhibition than Rhy
30 | CCC1CN2CCC3(C(=O)N(CCCCCCCOC(=O)c4ccc(OC)c(OC)c4)c4ccccc43)C2CC1C(=COC)C(=O)OC (centres unmarked) [RHY-38] |  | more potent activity than Rhy; also recorded: more potent effect on EphA4 inhibition than Rhy
31 | CCC1CN2CCC3(C(=O)N(CCCCCCCNCCCn4ccnc4)c4ccccc43)C2CC1C(=COC)C(=O)OC (centres unmarked) [RHY-47] |  | higher potency on EphA4 inhibition
32 | CC[C@H]1CN2CC[C@]3(C(=O)N(CCCCCCCNCCN4CCCC4)c4ccccc43)[C@@H]2C[C@@H]1/C(=C\OC)C(=O)OC [RHY-46] |  | higher potency on EphA4 inhibition
33 | C=CCN1C(=O)C2(CCN3CC(CC)C(C(=COC)C(=O)OC)CC32)c2ccccc21 (centres unmarked) [RHY-17] | most significant | significantly reduced the EphA4 clusters compared to Rhy
34 | CCC1CN2CCC3(C(=O)N(CCCCCCNCCN4CCCC4)c4ccccc43)C2CC1C(=COC)C(=O)OC (centres unmarked) [RHY-41] |  | higher potency on EphA4 inhibition
35 | CCC1CN2CCC3(C(=O)N(CC(=O)c4ccc(OC)cc4)c4ccccc43)C2CC1C(=COC)C(=O)OC (centres unmarked) [RHY-28] | most significant | significantly reduced the EphA4 clusters compared to Rhy

same assay, conditions: dose-dependent experiment, FIG. 17

Row | Compound | inhibitory effect on EphA4 clusters (potency) compared to Rhy
36 | CC[C@H]1CN2CC[C@]3(C(=O)N(CCCCCCCCOc4ccc(OC)c(OC)c4)c4ccccc43)[C@@H]2C[C@@H]1/C(=C\OC)C(=O)OC [RHY-37] | 12 fold
37 | CC[C@H]1CN2CC[C@]3(C(=O)N(CCCCCCCCCl)c4ccccc43)[C@@H]2C[C@@H]1/C(=C\OC)C(=O)OC [RHY-26] | 5 fold

same assay, conditions: same assay system; no data given

Row | Compound | potency as EphA4 inhibitor
38 | CCC1CN2CCC3(C(=O)N(CCCCCCCCl)c4ccccc43)C2CC1C(=COC)C(=O)OC (centres unmarked) [RHY-64] | tested and verified
39 | CCC1CN2CCC3(C(=O)N(CCCCl)c4ccccc43)C2CC1C(=COC)C(=O)OC (centres unmarked) [RHY-61] | tested and verified
40 | CCC1CN2CCC3(C(=O)N(CCCCCCCCCCCCCl)c4ccccc43)C2CC1C(=COC)C(=O)OC (centres unmarked) [RHY-67] | tested and verified
41 | CCC1CN2CCC3(C(=O)N(CCCCCCCl)c4ccccc43)C2CC1C(=COC)C(=O)OC (centres unmarked) [RHY-63] | tested and verified
42 | CCC1CN2CCC3(C(=O)N(CCCCCCCCCCl)c4ccccc43)C2CC1C(=COC)C(=O)OC (centres unmarked) [RHY-62] | tested and verified
43 | CCC1CN2CCC3(C(=O)N(CCCCCCCCCCCCl)c4ccccc43)C2CC1C(=COC)C(=O)OC (centres unmarked) [RHY-66] | tested and verified
44 | CCC1CN2CCC3(C(=O)N(CCCCCCCCNCCN4CCCC4)c4ccccc43)C2CC1C(=COC)C(=O)OC (centres unmarked) [RHY-53] | tested and verified
45 | CCC1CN2CCC3(C(=O)N(CCCCCCCCCCCl)c4ccccc43)C2CC1C(=COC)C(=O)OC (centres unmarked) [RHY-65] | tested and verified
